{"source": "patent US8940795B2", "about": "“Plant disease controlling composition and method for controlling plant disease” (Sumitomo Chemical Company, Limited, priority 2010, dated 2015)", "test_system": "gray mold fungus (Botrytis cinerea)", "assay": "Cucumber leaf disk preventive test against gray mold fungus", "type": "in vivo", "conditions": "15° C., four days", "description": "True leaf of cucumber is punched out with cork borer to 13 mm in diameter to prepare a leaf disk. In 24 well microwell plate that is dispensed with 1 ml 0.8% water agar, the leaf disk is placed such that the upper side of the leaf is in an upward direction. Thereto is added 20 micro liter a testing solution prepared by mixing a dimethyl sulfoxide solution of the present compound (racemate) and a dimethyl sulfoxide solution of flutolanil to a predetermined concentration to treat the leaf disk. After confirming that the testing medical solution is dried, conidium of gray mold fungus (Botrytis cinerea) is suspended into potato dextrose broth (DIFCO) in a density of about 10^5 conidium/mL and is then subjected to a spray inoculation. After leaving to stand the leaf disk in a growth chamber set up at 15° C. for four days, an onset area on the leaf is measured and then calculated an onset area rate (hereinafter, referred to as an onset area rate of treated group). The same operation is carried out with 20 micro liter water instead of 20 micro liter a testing medicine solution to calculate an onset area rate (hereinafter, referred to an onset area rate of non-treated group). A preventive value is calculated from the above onset area rate of treated group and the onset area rate of non-treated group by the following equation: Preventive value(%)=100×(A−B)/A wherein […] The same operations as described in Test Example 1 are carried out with zoxamide instead of flutolanil, so as to calculate a preventive value. Also for comparison, the same operations as described in Test Example 1 are carried out with the exception that the testing medicine solution is substituted with a predetermined concentration of each dimethyl sulfoxide solution of the present compound (racemate) or zoxamide, so as to calculate respective preventive values. For comparison, the same operations as described in Test Example 1 are carried out with the exception that the testing medicine solution is substituted with a predetermined concentration of a dimethyl sulfoxide solution of flutolanil, so as to calculate a preventive value.", "data": [{"smiles": "CCC(C)(NC(=O)c1cc(Cl)c(C)c(Cl)c1)C(=O)CCl", "note": "(stereo not shown) [zoxamide]", "values": [{"measurement": "preventive value (%)", "setting": "zoxamide alone 0.5 ppm", "value": 10, "unit": "%"}, {"measurement": "preventive value (%)", "setting": "zoxamide alone 5.0 ppm", "value": 15, "unit": "%"}]}, {"smiles": "CC(C)Oc1cccc(NC(=O)c2ccccc2C(F)(F)F)c1", "note": "[flutolanil]", "values": [{"measurement": "preventive value (%)", "setting": "flutolanil alone 0.5 ppm", "value": 10, "unit": "%"}, {"measurement": "preventive value (%)", "setting": "flutolanil alone 5.0 ppm", "value": 15, "unit": "%"}]}]}
